What is called IC50 is the concentration that gives 50% inhibition.

The test system of assay [1] is Phosphorylated Ribosomal Protein S6 (RPS6). The assay can be described thus: THP-1 RPS6 ELISA Assay. It counts as cell-based, Human. The settings on record: THP-1 cells, read-out: PI3Kγ_THP1_RPS6_ELISA IC50. The essentials:
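Serum-starved THP-1 cells were preincubated with a concentration range of compound for 2 h at 37 °C, then stimulated with 10 nM MCP-1 for 15 min. Phospho-RPS6 in lysates was quantified by ELISA at 450 nm. IC50 came from percent inhibition versus log inhibitor concentration.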
(An ELISA detects its analyte on a solid surface through an enzyme-linked reagent.)

For assay [2], the target named is PI3Kγ (p110γ) Recombinant Human Protein (Homo sapiens (Human), UniProt P48736). Description: PI3K-γ Scintillation Proximity Assay. Particulars: read-out: PI3Kγ IC50. The class given is biochemical. The essentials:
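Recombinant human p110γ assayed at room temperature in 20 mM MOPS pH 6.7, 10 mM MgCl2, 5 mM DTT, 0.03% CHAPS, 2% DMSO, with 20 μM PIP2 and 2 μM ATP plus [γ-33P]ATP. Product captured on WGA SPA beads overnight and counted; IC50 fitted from % of solvent-control activity versus log inhibitor concentration.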
In general terms: In a scintillation proximity assay essentially only radioactivity close to the scintillant gives light.

In assay [3] the target is PI3Kδ (p110δ/p85α) Recombinant Human Protein (Homo sapiens (Human), UniProt O00329). Description: PI3Kδ Scintillation Proximity Assay. The class given is biochemical. The essentials: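 Recombinant human p110δ/p85α (3.4 nM) phosphorylates 20 μM di-octanoyl PIP2 using 2 μM ATP spiked with [γ-33P]ATP, 120 min, room temperature, pH 6.7, 2% DMSO. Product measured by scintillation proximity; IC50 from dose-response fit.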

Counter-ions that a name gives are not always drawn. Like-named read-outs stand apart in the source and are kept apart here. A value given as a limit tells only on which side of the number the result lay.

PI3Kγ (p110γ) Recombinant Human Protein, sequence (P48736 whole entry): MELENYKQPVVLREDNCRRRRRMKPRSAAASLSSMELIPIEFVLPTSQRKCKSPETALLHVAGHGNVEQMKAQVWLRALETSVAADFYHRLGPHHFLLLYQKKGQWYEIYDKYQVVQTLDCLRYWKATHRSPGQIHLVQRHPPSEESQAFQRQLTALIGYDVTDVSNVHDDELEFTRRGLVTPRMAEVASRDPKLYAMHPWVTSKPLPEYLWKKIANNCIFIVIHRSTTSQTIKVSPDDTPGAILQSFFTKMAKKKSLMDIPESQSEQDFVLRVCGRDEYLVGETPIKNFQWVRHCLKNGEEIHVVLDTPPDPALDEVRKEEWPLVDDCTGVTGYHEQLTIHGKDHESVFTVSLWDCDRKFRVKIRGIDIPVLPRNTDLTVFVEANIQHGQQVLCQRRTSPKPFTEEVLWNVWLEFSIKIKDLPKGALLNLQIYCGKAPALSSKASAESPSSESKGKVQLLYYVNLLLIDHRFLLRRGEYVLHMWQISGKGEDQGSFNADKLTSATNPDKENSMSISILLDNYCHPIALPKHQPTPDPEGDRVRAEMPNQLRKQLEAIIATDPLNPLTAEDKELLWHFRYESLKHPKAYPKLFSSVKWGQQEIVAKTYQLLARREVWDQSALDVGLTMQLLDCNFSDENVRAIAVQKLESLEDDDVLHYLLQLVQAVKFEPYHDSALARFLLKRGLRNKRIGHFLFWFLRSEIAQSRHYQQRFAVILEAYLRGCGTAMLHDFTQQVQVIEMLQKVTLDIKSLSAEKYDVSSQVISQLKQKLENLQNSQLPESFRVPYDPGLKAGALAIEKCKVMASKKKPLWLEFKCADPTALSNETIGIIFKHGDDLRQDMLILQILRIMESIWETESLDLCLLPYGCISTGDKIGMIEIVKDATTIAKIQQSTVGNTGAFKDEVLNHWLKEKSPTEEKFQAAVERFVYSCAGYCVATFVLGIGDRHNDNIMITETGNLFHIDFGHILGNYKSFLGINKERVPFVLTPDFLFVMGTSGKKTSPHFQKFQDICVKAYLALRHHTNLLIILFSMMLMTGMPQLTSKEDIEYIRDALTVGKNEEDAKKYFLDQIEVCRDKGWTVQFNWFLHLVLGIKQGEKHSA
PI3Kδ (p110δ/p85α) Recombinant Human Protein, sequence (O00329 whole entry): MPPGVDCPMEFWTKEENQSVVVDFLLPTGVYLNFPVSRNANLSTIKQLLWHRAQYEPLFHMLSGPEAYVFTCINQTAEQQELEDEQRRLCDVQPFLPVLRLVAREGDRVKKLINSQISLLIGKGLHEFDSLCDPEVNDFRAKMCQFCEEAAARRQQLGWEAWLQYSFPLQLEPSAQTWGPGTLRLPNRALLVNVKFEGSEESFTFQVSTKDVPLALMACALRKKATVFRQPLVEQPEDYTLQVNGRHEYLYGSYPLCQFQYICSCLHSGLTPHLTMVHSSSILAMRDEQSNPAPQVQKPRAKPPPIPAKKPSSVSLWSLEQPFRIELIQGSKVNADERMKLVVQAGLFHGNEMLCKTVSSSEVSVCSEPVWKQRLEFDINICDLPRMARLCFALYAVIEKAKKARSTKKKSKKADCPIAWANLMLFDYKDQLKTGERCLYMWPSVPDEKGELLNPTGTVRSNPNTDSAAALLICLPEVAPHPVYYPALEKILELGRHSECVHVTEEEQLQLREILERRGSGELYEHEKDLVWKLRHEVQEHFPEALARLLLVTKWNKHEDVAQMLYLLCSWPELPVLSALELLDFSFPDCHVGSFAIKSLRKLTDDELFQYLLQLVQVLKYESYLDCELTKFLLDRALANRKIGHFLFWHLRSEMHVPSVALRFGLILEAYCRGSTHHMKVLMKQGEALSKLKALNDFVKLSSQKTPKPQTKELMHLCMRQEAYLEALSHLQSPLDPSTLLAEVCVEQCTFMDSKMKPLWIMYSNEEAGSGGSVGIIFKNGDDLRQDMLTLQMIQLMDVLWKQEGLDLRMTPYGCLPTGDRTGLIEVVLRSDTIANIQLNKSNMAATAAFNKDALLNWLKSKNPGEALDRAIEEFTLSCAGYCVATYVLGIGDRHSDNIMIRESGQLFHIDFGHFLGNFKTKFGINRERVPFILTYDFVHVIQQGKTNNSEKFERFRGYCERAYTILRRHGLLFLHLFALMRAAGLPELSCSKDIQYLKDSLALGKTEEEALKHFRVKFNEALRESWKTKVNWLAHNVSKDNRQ
PI3Kδ (p110δ/p85α) Recombinant Human Protein, sequence (P27986 whole entry partner): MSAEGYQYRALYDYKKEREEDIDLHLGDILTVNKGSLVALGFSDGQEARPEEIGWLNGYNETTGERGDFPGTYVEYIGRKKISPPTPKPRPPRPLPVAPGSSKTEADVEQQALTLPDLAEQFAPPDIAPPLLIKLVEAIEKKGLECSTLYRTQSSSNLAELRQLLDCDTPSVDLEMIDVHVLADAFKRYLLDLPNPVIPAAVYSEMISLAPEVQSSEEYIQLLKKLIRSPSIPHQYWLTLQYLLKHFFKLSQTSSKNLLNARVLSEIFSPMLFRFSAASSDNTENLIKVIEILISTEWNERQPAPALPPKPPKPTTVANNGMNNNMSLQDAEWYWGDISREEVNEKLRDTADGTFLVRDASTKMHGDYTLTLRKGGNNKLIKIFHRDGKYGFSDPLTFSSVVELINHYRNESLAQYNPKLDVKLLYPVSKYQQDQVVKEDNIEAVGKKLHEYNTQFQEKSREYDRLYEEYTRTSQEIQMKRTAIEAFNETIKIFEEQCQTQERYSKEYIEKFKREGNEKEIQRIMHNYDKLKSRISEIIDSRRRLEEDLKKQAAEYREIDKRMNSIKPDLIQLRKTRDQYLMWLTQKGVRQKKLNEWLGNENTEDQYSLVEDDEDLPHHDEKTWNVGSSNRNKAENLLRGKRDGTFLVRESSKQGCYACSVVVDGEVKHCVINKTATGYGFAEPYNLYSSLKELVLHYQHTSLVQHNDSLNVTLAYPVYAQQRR

In the case of `Cc1ccc(S(=O)(=O)N2CC[C@@H](F)[C@@H](N)C2)cc1-c1cnc2c(N)nc(C(F)(F)F)cn12` [Example 308, 3-(5-(((3S,4R)-3-amino-4-fluoropiperidin-1-yl)sulfonyl)-2-methylphenyl)-6-(trifluoromethyl)imidazo[1,2-a]pyrazin-8-amine], the IC50 in assay [1] (Homo sapiens), in assay [2] and in assay [3] was less than 100 nM each time.

Take `Cc1ccc(S(=O)(=O)NCC2(O)CNC2)cc1-c1cnc2c(N)nc(C(F)(F)F)nn12` [Example 335, 3-(4-Amino-2-(trifluoromethyl)imidazo[1,2-f][1,2,4]triazin-7-yl)-N-((3-hydroxyazetidin-3-yl)methyl)-4-methylbenzenesulfonamide trifluoroacetate salt]: the IC50 in assay [1] is 100 to 500 nM; in assay [2] it was less than 100 nM; in assay [3], 100 to 500 nM.

Turning to `Cc1ccc(S(=O)(=O)N[C@H]2CC[C@H](O)CC2)cc1-c1cnc2c(N)cc(Cl)cn12` [Example 4, 3-(8-Amino-6-chloroimidazo[1,2-a]pyridin-3-yl)-N-(trans-4-hydroxycyclohexyl)-4-methylbenzenesulfonamide trifluoroacetate], the half-maximal inhibitory concentration (IC50) in assay [1] (Homo sapiens) is less than 100 nM; in assay [2], less than 100 nM; in assay [3], 100 to 500 nM.

Consider `Cc1ccc(S(=O)(=O)NCC2CCOC2)cc1-c1cnc2c(N)nccn12` (stereo not drawn) [Example 48, 3-(8-Aminoimidazo[1,2-a]pyrazin-3-yl)-4-methyl-N-(tetrahydrofuran-3-ylmethyl)benzenesulfonamide], for which the IC50 is more than 1000 nM in assay [1] (Homo sapiens), less than 100 nM in assay [2] and 500 to 2000 nM in assay [3].

For `COc1cc(C)c(-c2cnc3c(N)nccn23)cc1S(=O)(=O)N[C@H]1CC[C@H](O)CC1` [Example 83, 5-(8-aminoimidazo[1,2-a]pyrazin-3-yl)-N-(trans-4-hydroxycyclohexyl)-2-methoxy-4-methylbenzenesulfonamide], the figures for the IC50 in assay [1] (Homo sapiens), in assay [2] and in assay [3] were more than 1000 nM, 100 to 500 nM and less than 100 nM, respectively.

For the compound `Cc1ccc(S(=O)(=O)NCC2(F)COC2)cc1-c1cnc2c(N)nc(C(F)(F)F)nn12` [Example 315, 3-(4-Amino-2-(trifluoromethyl)imidazo[1,2-f][1,2,4]triazin-7-yl)-N-((3-fluorooxetan-3-yl)methyl)-4-methylbenzenesulfonamide trifluoroacetate salt], the IC50 in assay [1], in assay [2] and in assay [3] was less than 100 nM in each case.

Take `Cc1ccc(S(=O)(=O)NC23CC(Cn4cncn4)(C2)C3)cc1-c1cnc2c(N)ncnn12` [Example 113, N-(3-((1H-1,2,4-triazol-1-yl)methyl)bicyclo[1.1.]pentan-1-yl)-3-(4-aminoimidazo[1,2-f][1,2,4]triazin-7-yl)-4-methylbenzenesulfonamide trifluoroacetate salt]: the IC50 in assay [1] was 100 to 500 nM; in assay [2], less than 100 nM; in assay [3], 500 to 2000 nM.

In the case of `Cc1ccc(S(=O)(=O)NCC2CCC(F)(F)CC2)cc1-c1cnc2c(N)ncnn12` [Example 130, 3-(4-aminoimidazo[2,1-f][1,2,4]triazin-7-yl)-N-((4,4-difluorocyclohexyl)methyl)-4-methylbenzenesulfonamide], the IC50 in assay [1] (Homo sapiens) was 500 to 1000 nM; in assay [2] it was less than 100 nM; in assay [3] it was 500 to 2000 nM.

As for `Cc1ccc(S(=O)(=O)NC23CC(Cn4cncn4)(C2)C3)cc1-c1cnc2c(N)nc(C(F)(F)F)nn12` [Example 338, N-(3-((1H-1,2,4-triazol-1-yl)methyl)bicyclo[1.1.1]pentan-1-yl)-3-(4-amino-2-(trifluoromethyl)imidazo[1,2-f][1,2,4]triazin-7-yl)-4-methylbenzenesulfonamide], the IC50 was 100 to 500 nM in assay [1], less than 100 nM in assay [2] and 100 to 500 nM in assay [3].

Consider `[2H]C([2H])([2H])c1ccc(S(=O)(=O)NC23CC(CC#N)(C2)C3)cc1-c1cnc2c(N)nc(C)cn12` [Example 378, trifluoroacetate salt], for which the half-maximal inhibitory concentration (IC50) in assay [1] (Homo sapiens) is less than 100 nM; in assay [2], less than 100 nM; in assay [3], 100 to 500 nM.

On to `Cc1ccc(S(C)(=O)=O)cc1-c1cnc2c(N)nc(-c3ccc(C(F)F)cc3)cn12` [Example 475, 6-(4-(Difluoromethyl)phenyl)-3-(2-methyl-5-(methylsulfonyl)phenyl)imidazo[1,2-a]pyrazin-8-amine trifluoroacetate], for which the IC50 in assay [1] (Homo sapiens) is 500 to 1000 nM; in assay [2], less than 100 nM; in assay [3] it was 100 to 500 nM.

Take `Cc1ccc(S(C)(=O)=O)cc1-c1cnc2c(N)nc(-c3ccc(C(C)O)cc3F)cn12` (stereo not drawn) [Example 488, 1-(4-(8-Amino-3-(2-methyl-5-(methylsulfonyl)phenyl)imidazo[1,2-a]pyrazin-6-yl)-3-fluorophenyl)ethan-1-ol]: the half-maximal inhibitory concentration (IC50) in assay [1] (Homo sapiens) is 100 to 500 nM; in assay [2], less than 100 nM; in assay [3], 100 to 500 nM.

As for `Cc1ccc(S(=O)(=O)NCC2CCN(C(=O)C3CC3)CC2)cc1-c1cnc2c(N)nccn12` [Example 136, 3-(8-aminoimidazo[1,2-a]pyrazin-3-yl)-N-((1-(cyclopropanecarbonyl)piperidin-4-yl)methyl)-4-methylbenzenesulfonamide], the IC50 in assay [1] (Homo sapiens) was more than 1000 nM; in assay [2], 100 to 500 nM; in assay [3], more than 2000 nM.

As to `Cc1ccc(S(=O)(=O)N[C@H]2CC[C@H](O)CC2)cc1-c1cnc2c(N)cc(-c3cnn(C)c3)cn12` [Example 8, 3-[8-Amino-6-(1-methyl-1H-pyrazol-4-yl)imidazo[1,2-a]pyridin-3-yl]-N-(trans-4-hydroxycyclohexyl)-4-methylbenzenesulfonamide bis(trifluoroacetate)], the results for the IC50 in assay [1] (Homo sapiens), in assay [2] and in assay [3] were more than 1000 nM, less than 100 nM and 100 to 500 nM, respectively.

For the compound `Cc1ccc(S(=O)(=O)NC23CC(N)(C2)C3)cc1-c1cnc2c(N)nc(C(F)(F)F)nn12` [Example 341, 3-(4-Amino-2-(trifluoromethyl)imidazo[1,2-f][1,2,4]triazin-7-yl)-N-(3-aminobicyclo[1.1.1]pentan-1-yl)-4-methylbenzenesulfonamide trifluoroacetate salt], the IC50 in assay [1] was 100 to 500 nM; in assay [2] it was less than 100 nM; in assay [3], 100 to 500 nM.

As for `Cc1ccc(S(=O)(=O)NC(C)(C)C(N)=O)cc1-c1cnc2c(N)ncnn12` [Example 190, 2-((3-(4-aminoimidazo[2,1-f][1,2,4]triazin-7-yl)-4-methylphenyl)sulfonamido)-2-methylpropanamide trifluoroacetate], the IC50 in assay [1] (Homo sapiens) is more than 1000 nM; in assay [2], less than 100 nM; in assay [3] it was 500 to 2000 nM.

As for `Cc1ccc(S(=O)(=O)N[C@H]2CC[C@H](O)CC2)cc1-c1cnc2c(N)nc(-c3ccnn3C)cn12` [Example 28, 3-[8-Amino-6-(1-methyl-1H-pyrazol-5-yl)imidazo[1,2-a]pyrazin-3-yl]-N-(trans-4-hydroxycyclohexyl)-4-methylbenzenesulfonamide], the values for the IC50 in assay [1] (Homo sapiens), in assay [2] and in assay [3] were 100 to 500 nM, less than 100 nM and 100 to 500 nM, respectively.

For `Cc1ccc(S(=O)(=O)NC23CCC(C(C)O)(CC2)OC3)cc1-c1cnc2c(N)ncnn12` (racemic) [Example 432, 3-(4-Aminoimidazo[1,2-f][1,2,4]triazin-7-yl)-N-(1-(1-hydroxyethyl)-2-oxabicyclo[2.2.2]octan-4-yl)-4-methylbenzenesulfonamide trifluoroacetate salt (racemic)], the half-maximal inhibitory concentration (IC50) was 100 to 500 nM in assay [1] (Homo sapiens), less than 100 nM in assay [2] and 100 to 500 nM in assay [3].

For `Cc1ccc(S(=O)(=O)CCC(F)(F)F)cc1-c1cnc2c(N)ncnn12` [Example 493, 7-(2-Methyl-5-((3,3,3-trifluoropropyl)sulfonyl)phenyl)imidazo[2,1-f][1,2,4]triazin-4-amine trifluoroacetate], the values for the IC50 in assay [1] (Homo sapiens), in assay [2] and in assay [3] were more than 1000 nM, 100 to 500 nM and more than 2000 nM, respectively.

For the compound `Cc1ccc(S(=O)(=O)NCC2(O)COC2)cc1-c1cnc2c(N)nc(C(F)(F)F)nn12` [Example 316, 3-(4-Amino-2-(trifluoromethyl)imidazo[1,2-f][1,2,4]triazin-7-yl)-N-((3-hydroxyoxetan-3-yl)methyl)-4-methylbenzenesulfonamide trifluoroacetate salt], the IC50 in assay [1] is less than 100 nM; in assay [2], less than 100 nM; in assay [3], 100 to 500 nM.

Regarding `O=C(O)C(F)(F)F.[2H]C([2H])([2H])c1ccc(S(=O)(=O)NC23CCC(CO)(C2)C3)cc1-c1cnc2c(N)nc(C(F)(F)F)cn12` [Example 390, 3-(8-Amino-6-(trifluoromethyl)imidazo[1,2-a]pyrazin-3-yl)-N-(4-(hydroxymethyl)bicyclo[2.1.1]hexan-1-yl)-4-(methyl-d3)benzenesulfonamide trifluoroacetate salt], the IC50 is 100 to 500 nM in assay [1] (Homo sapiens), less than 100 nM in assay [2] and 100 to 500 nM in assay [3].

For the compound `Cc1ccc(S(=O)(=O)N[C@H]2CC[C@H](O)CC2)cc1-c1cnc2c(N)nc(Br)cn12` [Example 16, 3-(8-Amino-6-bromoimidazo[1,2-a]pyrazin-3-yl)-N-(trans-4-hydroxycyclohexyl)-4-methylbenzenesulfonamide], the IC50 in assay [1] (Homo sapiens), in assay [2] and in assay [3] was less than 100 nM each time.

Source of the values: US10479795B2 (Incyte Corporation, priority 2016, dated 2019).
